Assay [1] has as its target T1, ATP-binding cassette sub-family C member 4 (Homo sapiens, UniProt O15439).
T1 sequence (O15439 whole entry): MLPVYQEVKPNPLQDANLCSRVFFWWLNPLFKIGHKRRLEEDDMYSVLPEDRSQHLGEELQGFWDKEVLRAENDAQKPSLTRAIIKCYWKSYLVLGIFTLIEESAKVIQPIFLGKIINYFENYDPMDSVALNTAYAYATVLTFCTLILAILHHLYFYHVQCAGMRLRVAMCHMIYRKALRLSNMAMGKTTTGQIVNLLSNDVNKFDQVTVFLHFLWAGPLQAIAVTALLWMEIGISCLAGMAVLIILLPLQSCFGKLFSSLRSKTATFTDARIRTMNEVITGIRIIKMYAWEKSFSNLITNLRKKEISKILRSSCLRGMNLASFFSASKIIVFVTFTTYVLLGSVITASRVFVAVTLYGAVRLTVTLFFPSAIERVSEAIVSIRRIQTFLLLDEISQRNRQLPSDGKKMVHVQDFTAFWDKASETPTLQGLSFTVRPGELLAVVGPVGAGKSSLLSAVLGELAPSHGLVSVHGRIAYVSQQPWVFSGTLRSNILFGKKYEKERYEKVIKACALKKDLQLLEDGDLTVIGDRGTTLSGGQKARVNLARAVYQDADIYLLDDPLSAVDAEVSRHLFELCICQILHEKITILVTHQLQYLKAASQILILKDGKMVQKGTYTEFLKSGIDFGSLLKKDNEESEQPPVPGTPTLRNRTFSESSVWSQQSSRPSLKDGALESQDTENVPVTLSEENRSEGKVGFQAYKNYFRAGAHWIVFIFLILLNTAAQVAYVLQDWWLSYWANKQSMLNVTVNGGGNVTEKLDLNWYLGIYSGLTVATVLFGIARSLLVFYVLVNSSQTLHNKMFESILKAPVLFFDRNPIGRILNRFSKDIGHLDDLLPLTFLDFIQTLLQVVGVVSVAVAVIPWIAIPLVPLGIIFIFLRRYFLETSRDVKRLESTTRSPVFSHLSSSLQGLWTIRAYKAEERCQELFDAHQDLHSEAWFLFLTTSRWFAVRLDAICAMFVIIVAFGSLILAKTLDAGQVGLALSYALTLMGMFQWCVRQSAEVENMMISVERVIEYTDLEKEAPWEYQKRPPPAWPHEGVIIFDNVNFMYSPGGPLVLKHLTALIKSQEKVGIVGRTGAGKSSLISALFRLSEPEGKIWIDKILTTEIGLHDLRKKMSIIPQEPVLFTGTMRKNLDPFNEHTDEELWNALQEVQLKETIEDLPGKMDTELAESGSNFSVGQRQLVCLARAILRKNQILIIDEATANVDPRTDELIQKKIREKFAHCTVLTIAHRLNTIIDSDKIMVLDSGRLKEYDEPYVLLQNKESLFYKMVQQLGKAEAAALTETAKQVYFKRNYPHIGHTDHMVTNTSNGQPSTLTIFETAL
The assay can be described thus: Inhibition of human MRP4 overexpressed in Sf9 cell membrane vesicles assessed as uptake of [3H]-estradiol-17beta-D-glucuronide in presence of ATP and GSH measured after 20 mins by membrane vesicle transport assay. In kind it is ADME, cell-based.

The target of assay [2] is ATP-binding cassette sub-family C member 2 (Homo sapiens, UniProt Q92887). The assay can be described thus: Inhibition of human MRP2 overexpressed in Sf9 cell membrane vesicles assessed as uptake of [3H]-estradiol-17beta-D-glucuronide in presence of ATP and GSH measured after 20 mins by membrane vesicle transport assay.
Assay [3] has as its target ATP-binding cassette sub-family C member 3 (Homo sapiens, UniProt O15438). Kind of assay: Inhibition of human MRP3 overexpressed in Sf9 insect cell membrane vesicles assessed as uptake of [3H]-estradiol-17beta-D-glucuronide in presence of ATP and GSH measured after 10 mins by membrane vesicle transport assay. In kind it is ADME, cell-based.
A further assay addresses Bile salt export pump (Homo sapiens, UniProt O95342). Kind of assay: Inhibition of human BSEP overexpressed in Sf9 cell membrane vesicles assessed as uptake of [3H]-taurocholate in presence of ATP measured after 15 to 20 mins by membrane vesicle transport assay. Type of assay: ADME, cell-based.

pIC50: −log10 of the molar value. Structures can show the parent of a compound that is named as a salt. Some results are limits rather than exact numbers.

Sequence of ATP-binding cassette sub-family C member 2 (Q92887 whole entry): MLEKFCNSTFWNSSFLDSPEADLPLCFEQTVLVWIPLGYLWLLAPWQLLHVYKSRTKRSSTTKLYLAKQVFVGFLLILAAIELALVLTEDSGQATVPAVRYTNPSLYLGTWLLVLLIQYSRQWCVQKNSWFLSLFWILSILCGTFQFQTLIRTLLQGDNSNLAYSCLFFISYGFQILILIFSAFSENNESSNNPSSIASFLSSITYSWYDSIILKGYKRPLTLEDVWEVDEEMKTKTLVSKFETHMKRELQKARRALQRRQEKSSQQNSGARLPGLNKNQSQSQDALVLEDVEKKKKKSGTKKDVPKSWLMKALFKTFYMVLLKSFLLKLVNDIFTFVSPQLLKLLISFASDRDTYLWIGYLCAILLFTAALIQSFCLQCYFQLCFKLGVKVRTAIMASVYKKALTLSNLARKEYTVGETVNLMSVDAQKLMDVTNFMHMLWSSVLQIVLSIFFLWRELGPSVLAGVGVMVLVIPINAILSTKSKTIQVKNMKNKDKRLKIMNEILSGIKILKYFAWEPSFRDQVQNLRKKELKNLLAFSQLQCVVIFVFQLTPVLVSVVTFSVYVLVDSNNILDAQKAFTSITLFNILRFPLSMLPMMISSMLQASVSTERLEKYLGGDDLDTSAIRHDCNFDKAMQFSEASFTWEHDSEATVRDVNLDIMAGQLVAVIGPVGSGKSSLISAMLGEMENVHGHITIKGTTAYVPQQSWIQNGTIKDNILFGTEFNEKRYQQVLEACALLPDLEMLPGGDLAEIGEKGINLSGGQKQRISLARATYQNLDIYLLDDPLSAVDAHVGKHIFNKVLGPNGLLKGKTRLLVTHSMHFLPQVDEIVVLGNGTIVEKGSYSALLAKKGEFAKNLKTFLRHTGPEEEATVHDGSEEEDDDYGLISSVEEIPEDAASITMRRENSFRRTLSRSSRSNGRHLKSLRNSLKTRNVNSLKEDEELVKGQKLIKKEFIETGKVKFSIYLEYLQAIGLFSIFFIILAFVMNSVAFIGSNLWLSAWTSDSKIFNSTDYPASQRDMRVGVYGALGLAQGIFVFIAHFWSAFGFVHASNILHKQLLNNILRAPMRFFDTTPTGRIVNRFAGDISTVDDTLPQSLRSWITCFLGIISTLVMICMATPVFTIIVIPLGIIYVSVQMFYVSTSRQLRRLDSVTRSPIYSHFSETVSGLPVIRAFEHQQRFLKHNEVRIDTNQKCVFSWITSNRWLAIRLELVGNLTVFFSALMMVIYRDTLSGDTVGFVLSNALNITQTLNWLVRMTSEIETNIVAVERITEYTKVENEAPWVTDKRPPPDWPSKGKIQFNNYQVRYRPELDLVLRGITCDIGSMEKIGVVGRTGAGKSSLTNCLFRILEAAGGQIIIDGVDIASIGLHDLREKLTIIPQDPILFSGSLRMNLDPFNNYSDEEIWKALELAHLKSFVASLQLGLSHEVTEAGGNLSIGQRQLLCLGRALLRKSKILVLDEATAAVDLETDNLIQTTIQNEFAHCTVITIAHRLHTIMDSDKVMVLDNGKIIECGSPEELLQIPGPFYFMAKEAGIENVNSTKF
Sequence of ATP-binding cassette sub-family C member 3 (O15438 whole entry): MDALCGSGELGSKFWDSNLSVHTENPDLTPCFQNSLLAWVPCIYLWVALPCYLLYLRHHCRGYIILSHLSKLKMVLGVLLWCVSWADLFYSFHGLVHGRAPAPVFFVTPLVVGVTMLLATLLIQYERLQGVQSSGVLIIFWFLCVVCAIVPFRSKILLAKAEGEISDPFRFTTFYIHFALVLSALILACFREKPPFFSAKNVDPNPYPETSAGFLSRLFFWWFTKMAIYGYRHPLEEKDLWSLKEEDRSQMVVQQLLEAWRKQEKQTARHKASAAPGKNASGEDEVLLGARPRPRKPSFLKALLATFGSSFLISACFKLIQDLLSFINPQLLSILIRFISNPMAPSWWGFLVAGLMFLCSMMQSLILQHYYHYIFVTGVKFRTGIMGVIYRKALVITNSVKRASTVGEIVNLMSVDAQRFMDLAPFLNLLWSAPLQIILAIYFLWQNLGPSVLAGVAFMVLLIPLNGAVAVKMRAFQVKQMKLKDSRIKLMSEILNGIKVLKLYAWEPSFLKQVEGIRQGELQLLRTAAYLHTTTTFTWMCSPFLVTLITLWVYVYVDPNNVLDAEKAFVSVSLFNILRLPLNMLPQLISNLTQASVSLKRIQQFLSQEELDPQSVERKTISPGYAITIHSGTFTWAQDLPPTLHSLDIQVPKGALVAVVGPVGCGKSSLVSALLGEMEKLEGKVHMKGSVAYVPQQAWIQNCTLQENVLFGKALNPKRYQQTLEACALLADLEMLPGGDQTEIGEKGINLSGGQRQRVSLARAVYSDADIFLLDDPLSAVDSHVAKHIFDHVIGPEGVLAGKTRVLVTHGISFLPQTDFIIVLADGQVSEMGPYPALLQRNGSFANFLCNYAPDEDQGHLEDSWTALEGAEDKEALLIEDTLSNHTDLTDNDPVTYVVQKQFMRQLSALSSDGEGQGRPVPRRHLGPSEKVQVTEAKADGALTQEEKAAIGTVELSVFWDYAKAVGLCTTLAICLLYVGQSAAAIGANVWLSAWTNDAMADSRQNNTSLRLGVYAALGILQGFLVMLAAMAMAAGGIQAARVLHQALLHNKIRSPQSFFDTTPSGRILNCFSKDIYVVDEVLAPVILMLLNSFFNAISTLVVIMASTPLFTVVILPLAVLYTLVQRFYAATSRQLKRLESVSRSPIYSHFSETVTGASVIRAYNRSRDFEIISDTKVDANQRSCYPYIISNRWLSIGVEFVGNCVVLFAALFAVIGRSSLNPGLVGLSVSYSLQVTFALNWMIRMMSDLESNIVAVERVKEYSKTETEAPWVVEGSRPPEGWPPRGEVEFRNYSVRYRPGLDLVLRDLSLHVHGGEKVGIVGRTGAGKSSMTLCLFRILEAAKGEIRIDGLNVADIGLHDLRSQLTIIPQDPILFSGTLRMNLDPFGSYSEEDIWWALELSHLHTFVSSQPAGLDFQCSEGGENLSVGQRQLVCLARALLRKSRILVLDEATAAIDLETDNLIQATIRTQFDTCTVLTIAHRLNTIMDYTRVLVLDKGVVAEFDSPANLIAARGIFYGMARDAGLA
Sequence of Bile salt export pump (O95342 whole entry): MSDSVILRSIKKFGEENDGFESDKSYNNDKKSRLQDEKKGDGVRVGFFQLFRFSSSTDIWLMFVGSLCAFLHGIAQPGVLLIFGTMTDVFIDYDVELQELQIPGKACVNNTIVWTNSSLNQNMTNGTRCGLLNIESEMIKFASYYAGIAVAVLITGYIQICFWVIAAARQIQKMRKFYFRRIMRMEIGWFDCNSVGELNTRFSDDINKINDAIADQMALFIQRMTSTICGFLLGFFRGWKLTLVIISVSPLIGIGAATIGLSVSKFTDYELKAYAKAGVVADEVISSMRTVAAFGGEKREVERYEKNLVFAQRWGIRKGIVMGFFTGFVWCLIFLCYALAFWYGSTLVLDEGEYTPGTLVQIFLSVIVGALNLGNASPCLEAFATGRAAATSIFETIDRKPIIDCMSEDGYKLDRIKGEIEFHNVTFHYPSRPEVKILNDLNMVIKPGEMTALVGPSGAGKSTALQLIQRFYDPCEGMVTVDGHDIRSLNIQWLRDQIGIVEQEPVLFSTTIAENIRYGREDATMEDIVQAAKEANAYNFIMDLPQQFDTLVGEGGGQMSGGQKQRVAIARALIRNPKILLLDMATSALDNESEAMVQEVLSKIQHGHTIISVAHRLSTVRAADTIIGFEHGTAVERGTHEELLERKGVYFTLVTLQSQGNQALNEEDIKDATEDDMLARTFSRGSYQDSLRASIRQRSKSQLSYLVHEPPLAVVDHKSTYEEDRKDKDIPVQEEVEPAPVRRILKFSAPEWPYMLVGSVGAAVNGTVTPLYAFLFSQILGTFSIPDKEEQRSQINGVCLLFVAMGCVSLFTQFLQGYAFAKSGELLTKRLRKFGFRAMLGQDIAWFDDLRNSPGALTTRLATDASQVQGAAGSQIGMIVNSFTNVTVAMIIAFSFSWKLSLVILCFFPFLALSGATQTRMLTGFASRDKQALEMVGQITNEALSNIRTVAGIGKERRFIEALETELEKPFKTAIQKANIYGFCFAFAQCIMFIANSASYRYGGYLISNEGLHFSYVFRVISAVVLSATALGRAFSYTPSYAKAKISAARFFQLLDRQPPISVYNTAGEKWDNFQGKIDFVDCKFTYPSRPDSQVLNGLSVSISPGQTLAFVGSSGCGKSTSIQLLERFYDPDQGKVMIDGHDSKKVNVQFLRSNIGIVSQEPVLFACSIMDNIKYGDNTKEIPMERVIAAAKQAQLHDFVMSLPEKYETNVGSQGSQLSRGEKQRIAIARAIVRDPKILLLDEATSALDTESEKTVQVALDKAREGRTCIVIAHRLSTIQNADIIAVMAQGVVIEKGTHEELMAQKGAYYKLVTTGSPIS

Consider `C[C@H]1O[C@@H](O[C@H]2[C@@H](O)C[C@H](O[C@H]3[C@@H](O)C[C@H](O[C@H]4CC[C@@]5(C)[C@H](CC[C@@H]6[C@@H]5CC[C@]5(C)[C@@H](C7=CC(=O)OC7)CC[C@]65O)C4)O[C@@H]3C)O[C@@H]2C)C[C@H](O)[C@@H]1O` [DIGITOXIN], for which the negative logarithm of the IC50 (pIC50) (usually the negative decadic logarithm of the IC50, by convention in mol/L) in assay [1] is < 3.88; in assay [2] it was < 3.88; in assay [3], < 3.88; at Bile salt export pump, 4.51.
Take `CC(C)(C)NCC(O)c1cc(O)cc(O)c1` (centres undefined) [TERBUTALINE]: the pIC50 (in assay [1]; in assay [2]; in assay [3]; on Bile salt export pump) was < 3.88 each time.
As for `CCN1CCC[C@H]1CNC(=O)c1cc(S(N)(=O)=O)ccc1OC` [LEVOSULPIRIDE], the pIC50 (in assay [1]; in assay [2]; in assay [3]; on Bile salt export pump) was < 3.88 throughout.
Turning to `Cc1c(OCC(F)(F)F)ccnc1C[S@@+]([O-])c1nc2ccccc2[nH]1` [DEXLANSOPRAZOLE], the pIC50 (in assay [1]; in assay [2]; in assay [3]; on Bile salt export pump) was < 3.88 throughout.
With `Cc1c(OCC(F)(F)F)ccnc1C[S+]([O-])c1nc2ccccc2[nH]1` (centres undefined) [LANSOPRAZOLE], the pIC50 (in assay [1]; in assay [2]; in assay [3]; at Bile salt export pump) was < 3.88 throughout.
Turning to `O=C(Cn1ccnc1[N+](=O)[O-])NCc1ccccc1` [BENZNIDAZOLE], the pIC50 (in assay [1]; in assay [2]; in assay [3]; on Bile salt export pump) was < 3.88 in each case.
As to `CCN1CCN(C(=O)N[C@@H](C(=O)N[C@@H]2C(=O)N3[C@@H]2SC(C)(C)[C@@H]3C(=O)O)c2ccccc2)C(=O)C1=O` [PIPERACILLIN SODIUM], the pIC50 (in assay [1]; in assay [2]; in assay [3]; at Bile salt export pump) was < 3.88 in each case.
Take `CNC1(c2ccccc2Cl)CCCCC1=O` (centres undefined) [KETAMINE]: the pIC50 (in assay [1]; in assay [2]; in assay [3]; on Bile salt export pump) was < 3.88 throughout.
Consider `CC(C)C[C@H](NC(=O)[C@H](Cc1ccccc1)NC(=O)c1cnccn1)B(O)O` [BORTEZOMIB], for which the pIC50 (in assay [1]; in assay [2]; in assay [3]; at Bile salt export pump) was < 3.88 each time.
As to `N=C(N)c1ccc(OCCCCCOc2ccc(C(=N)N)cc2)cc1` [PENTAMIDINE], the pIC50 (in assay [1]; in assay [2]; in assay [3]; at Bile salt export pump) was < 3.88 throughout.
`CC(=O)OCC(=O)[C@@]1(O)[C@H](OC(C)=O)C[C@H]2[C@@H]3CCC4=CC(=O)C=C[C@]4(C)[C@@]3(F)[C@@H](O)C[C@@]21C` [TRIAMCINOLONE DIACETATE]: the pIC50 (in assay [1]; in assay [2]; in assay [3]; at Bile salt export pump) was < 3.88 throughout.
In the case of `NS(=O)(=O)c1cc2c(cc1Cl)NCNS2(=O)=O` [HYDROCHLOROTHIAZIDE], the pIC50 (in assay [1]; in assay [2]; in assay [3]; at Bile salt export pump) was < 3.88 in each case.
Consider `CC(C(=O)O)c1ccc2c(c1)[nH]c1ccc(Cl)cc12` (centres undefined) [CARPROFEN], for which the pIC50 in assay [1] is 5.52; in assay [2], < 3.88; in assay [3] it was < 3.88; on Bile salt export pump it was < 3.88.
Regarding `Cc1oncc1C(=O)Nc1ccc(C(F)(F)F)cc1` [LEFLUNOMIDE], the pIC50 (in assay [1]; in assay [2]; in assay [3]; at Bile salt export pump) was < 3.88 each time.
Turning to `C[C@@H](O)[C@H]1C(=O)N2C(C(=O)O)=C(S[C@@H]3CN[C@H](C(=O)Nc4cccc(C(=O)O)c4)C3)[C@H](C)[C@H]12`, the pIC50 was < 3.88 in assay [1], 4.25 in assay [2], < 3.88 in assay [3] and < 3.88 at Bile salt export pump.
For `Cc1noc(NS(=O)(=O)c2ccc(N)cc2)c1C` [SULFISOXAZOLE], the pIC50 (in assay [1]; in assay [2]; in assay [3]; at Bile salt export pump) was < 3.88 in each case.
`C[C@@H]1C[C@H]2[C@@H]3CCC4=CC(=O)C=C[C@]4(C)[C@@]3(F)[C@@H](O)C[C@]2(C)[C@@]1(O)C(=O)CO` [DEXAMETHASONE]: the pIC50 (in assay [1]; in assay [2]; in assay [3]; on Bile salt export pump) was < 3.88 throughout.
As to enfuvirtide, the pIC50 in assay [1] is 5.12; in assay [2] it was < 3.88; in assay [3], < 3.88; at Bile salt export pump, < 3.88.
As to `COC(=O)[C@@H]1CC2=CC(=O)CC[C@]2(C)[C@@]23O[C@@H]2C[C@@]2(C)[C@@H](CC[C@@]24CCC(=O)O4)[C@H]13` [EPLERENONE], the negative logarithm of the IC50 (pIC50) (in assay [1]; in assay [2]; in assay [3]; on Bile salt export pump) was < 3.88 each time.
`CC1=NS(=O)(=O)c2cc(Cl)ccc2N1` [DIAZOXIDE]: the pIC50 (in assay [1]; in assay [2]; in assay [3]; at Bile salt export pump) was < 3.88 throughout.
For `CC(C(=O)O)c1ccc2c(c1)Cc1cccnc1O2` (centres undefined) [PRANOPROFEN], the pIC50 in assay [1] was 5.01; in assay [2], < 3.88; in assay [3], < 3.88; on Bile salt export pump, < 3.88.
For the compound `O=C1CCc2cc(OCCCCc3nnnn3C3CCCCC3)ccc2N1` [CILOSTAZOL], the pIC50 in assay [1] is 4.78; in assay [2], < 3.88; in assay [3] it was < 3.88; on Bile salt export pump, < 3.88.
As to `NS(=O)(=O)Cc1noc2ccccc12` [ZONISAMIDE], the pIC50 (in assay [1]; in assay [2]; in assay [3]; at Bile salt export pump) was < 3.88 each time.
With `CCN(CC)CCOc1ccc(C(=C(Cl)c2ccccc2)c2ccccc2)cc1` [CLOMIPHENE], the pIC50 (in assay [1]; in assay [2]; in assay [3]; at Bile salt export pump) was < 3.88 in each case.
For `CCCN1C[C@H](CSC)C[C@@H]2c3cccc4[nH]cc(c34)C[C@H]21` [PERGOLIDE MESYLATE], the pIC50 (in assay [1]; in assay [2]; in assay [3]; at Bile salt export pump) was < 3.88 each time.
Regarding `O=NN(CCCl)C(=O)NCCCl` [CARMUSTINE], the pIC50 (in assay [1]; in assay [2]; in assay [3]; on Bile salt export pump) was < 3.88 in each case.
In the case of `CN(C)CC[C@@H](c1ccc(Cl)cc1)c1ccccn1` [DEXCHLORPHENIRAMINE MALEATE], the pIC50 (in assay [1]; in assay [2]; in assay [3]; at Bile salt export pump) was < 3.88 throughout.
Turning to `O=C(O)CCCc1ccc(N(CCCl)CCCl)cc1` [CHLORAMBUCIL], the pIC50 (in assay [1]; in assay [2]; in assay [3]; at Bile salt export pump) was < 3.88 in each case.
With `CCCNCC(O)COc1ccccc1C(=O)CCc1ccccc1` (centres undefined) [PROPAFENONE], the pIC50 (in assay [1]; in assay [2]; in assay [3]; at Bile salt export pump) was < 3.88 each time.
Turning to `O=c1[nH]c(=O)n([C@H]2CCCO2)cc1F`, the negative logarithm of the IC50 (pIC50) (in assay [1]; in assay [2]; in assay [3]; at Bile salt export pump) was < 3.88 in each case.
Consider `CCCNC(=O)NS(=O)(=O)c1ccc(Cl)cc1` [CHLORPROPAMIDE], for which the pIC50 (in assay [1]; in assay [2]; in assay [3]; at Bile salt export pump) was < 3.88 each time.

(Values after ChEMBL document CHEMBL4028801, “A multifactorial approach to hepatobiliary transporter assessment enables improved therapeutic compound development” (Toxicol Sci, 2013).)
